Columns and labels:
[1] = Cytotoxicity against human Bel7402 cells after 96 hrs by MTT assay; assay type: functional, cell-based; details: Bel-7402, 96 h
[2] = Cytotoxicity against human HCT8 cells after 96 hrs by MTT assay; assay type: functional, cell-based; details: HCT-8, 96 h
A2780 = assay: Cytotoxicity against human A2780 cells after 96 hrs by MTT assay; assay type: functional, cell-based; details: A2780, 96 h
A549 = assay: Cytotoxicity against human A549 cells after 96 hrs by MTT assay; assay type: functional, cell-based; details: A549, 96 h
[3] = Cytotoxicity against human BGC823 cells after 96 hrs by MTT assay; assay type: functional, cell-based; details: BGC-823, 96 h
[4] = Antiinflammatory activity in mouse BV2 cells assessed as inhibition of LPS-induced nitric oxide production after 24 hrs by Griess method; assay type: functional, cell-based; details: BV-2, 24 h
[5] = Cytotoxicity against mouse BV2 cells assessed as cell viability by MTT assay relative to LPS-treated control; assay type: cell-based, BV-2; set-up: concentration or dose not given beside the values; details: read-out: Activity

| SMILES | IC50 [4] | IC50 [1] | IC50 [2] | IC50 (A2780) | IC50 (A549) | IC50 [3] | viability [5] |
| --- | --- | --- | --- | --- | --- | --- | --- |
| CC(=O)[C@@H]1CC[C@]2(C)CC[C@]3(C)[C@H](CC[C@@H]4[C@@]5(C)CC[C@@H](O)C(C)(C)[C@@H]5CC[C@]43C)[C@@H]12 | > 10 µM | > 10 µM | > 10 µM | > 10 µM | > 10 µM | > 10 µM | – |
| CC(=O)[C@@H]1CC[C@]2(C)CC[C@]3(C)[C@H](CC[C@@H]4[C@@]5(C)CC[C@H](O)C(C)(C)[C@@H]5CC[C@]43C)[C@@H]12 | 6.09 µM | > 10 µM | > 10 µM | > 10 µM | > 10 µM | > 10 µM | 93.5% |
| C=C(C=O)[C@@H]1CC[C@]2(C)CC[C@]3(C)[C@H](CC[C@@H]4[C@@]5(C)CC[C@@H](O)C(C)(C)[C@@H]5CC[C@]43C)[C@@H]12 | > 10 µM | > 10 µM | > 10 µM | > 10 µM | > 10 µM | > 10 µM | – |
| C=C(C)[C@@H]1CC[C@]2(C)CC[C@]3(C)[C@H](CC[C@@H]4[C@@]5(C)CC[C@@H](O)C(C)(C)[C@@H]5CC[C@]43C)[C@@H]12 | > 10 µM | > 10 µM | > 10 µM | > 10 µM | > 10 µM | > 10 µM | – |
| C=C(CO)[C@@H]1CC[C@]2(C)CC[C@]3(C)[C@H](CC[C@@H]4[C@@]5(C)CCC(=O)C(C)(C)[C@@H]5CC[C@]43C)[C@@H]12 | > 10 µM | > 10 µM | > 10 µM | > 10 µM | > 10 µM | > 10 µM | – |
| C=C(CO)[C@@H]1CC[C@]2(C)CC[C@]3(C)[C@H](CC[C@@H]4[C@@]5(C)CC[C@H](O)C(C)(C)[C@@H]5CC[C@]43C)[C@@H]12 | > 10 µM | > 10 µM | > 10 µM | > 10 µM | > 10 µM | > 10 µM | – |
| CC(=O)O[C@@H]1CC[C@]2(C)[C@H]3CC[C@@H]4[C@H]5[C@H](C(C)=O)CC[C@]5(CO)CC[C@@]4(C)[C@]3(C)CC[C@H]2C1(C)C (relative stereo) | > 10 µM | > 10 µM | > 10 µM | > 10 µM | > 10 µM | > 10 µM | – |
| CC(=O)[C@@H]1CC[C@]2(CO)CC[C@]3(C)[C@H](CC[C@@H]4[C@@]5(C)CC[C@@H](O)C(C)(C)[C@@H]5CC[C@]43C)[C@@H]12 (relative stereo) | > 10 µM | > 10 µM | > 10 µM | > 10 µM | > 10 µM | > 10 µM | – |
| CC(=O)OC[C@]12CC[C@@H](C(C)=O)[C@@H]1[C@H]1CC[C@@H]3[C@@]4(C)CC[C@@H](O)C(C)(C)[C@@H]4CC[C@@]3(C)[C@]1(C)CC2 (relative stereo) | > 10 µM | > 10 µM | > 10 µM | > 10 µM | > 10 µM | > 10 µM | – |
| C=C(C)[C@@H]1CC[C@]2(CO)CC[C@]3(C)[C@H](CC[C@@H]4[C@@]5(C)CC[C@@H](O)C(C)(C)[C@@H]5CC[C@]43C)[C@@H]12 [3-EPI-BETULIN] | 2.54 µM | > 10 µM | > 10 µM | > 10 µM | > 10 µM | > 10 µM | 89.3% |
| C=C(C)[C@@H]1CC[C@]2(CO)CC[C@]3(C)[C@H](CC[C@@H]4[C@@]5(C)CC[C@H](O)C(C)(C)[C@@H]5CC[C@]43C)[C@@H]12 [BETULIN] | > 10 µM | > 10 µM | > 10 µM | > 10 µM | > 10 µM | > 10 µM | – |
| C=C(C)[C@@H]1CC[C@]2(CO)CC[C@]3(C)[C@H](CC[C@@H]4[C@@]5(C)CCC(=O)C(C)(C)[C@@H]5CC[C@]43C)[C@@H]12 [BETULONE] | > 10 µM | > 10 µM | > 10 µM | > 10 µM | > 10 µM | > 10 µM | – |
| C=C(C)[C@@H]1CC[C@]2(C)CC[C@]3(C)[C@H](CC[C@@H]4[C@@]5(C)CC[C@H](O)C(C)(C)[C@@H]5CC[C@]43C)[C@@H]12 [LUPEOL] | > 10 µM | > 10 µM | > 10 µM | > 10 µM | > 10 µM | > 10 µM | – |
| CC(=O)O[C@H]1C(=O)[C@@]2(C)[C@H]([C@H](OC(=O)c3ccccc3)[C@]3(O)C[C@H](OC(=O)[C@H](O)[C@@H](NC(=O)c4ccccc4)c4ccccc4)C(C)=C1C3(C)C)[C@]1(OC(C)=O)CO[C@@H]1C[C@@H]2O [PACLITAXEL] | – | 0.011 µM | – | 0.59 µM | 0.032 µM | 0.026 µM | – |

The next lines start with results.

| IC50 [4] | SMILES | IC50 [1] | IC50 [2] | IC50 (A2780) | IC50 (A549) | IC50 [3] | viability [5] |
| --- | --- | --- | --- | --- | --- | --- | --- |
| > 10 µM | C=C(CO)[C@@H]1CC[C@]2(C)CC[C@]3(C)[C@H](CC[C@@H]4[C@@]5(C)CC[C@@H](O)C(C)(C)[C@@H]5CC[C@]43C)[C@@H]12 | > 10 µM | > 10 µM | > 10 µM | > 10 µM | > 10 µM | – |
| 7.39 µM | C[C@H](C(=O)O)[C@@H]1CC[C@]2(C)CC[C@]3(C)[C@H](CC[C@@H]4[C@@]5(C)CC[C@@H](O)C(C)(C)[C@@H]5CC[C@]43C)[C@@H]12 | > 10 µM | > 10 µM | > 10 µM | > 10 µM | > 10 µM | 87.3% |
| 7.48 µM | CC(=O)O[C@@H]1CC[C@]2(C)[C@H]3CC[C@@H]4[C@H]5[C@H]([C@H](C)C(=O)O)CC[C@]5(C)CC[C@@]4(C)[C@]3(C)CC[C@H]2C1(C)C | > 10 µM | > 10 µM | > 10 µM | > 10 µM | > 10 µM | 98.5% |
| > 10 µM | C[C@H](C(=O)O)[C@@H]1CC[C@]2(C)CC[C@]3(C)[C@H](CC[C@@H]4[C@@]5(C)CCC(=O)C(C)(C)[C@@H]5CC[C@]43C)[C@@H]12 | > 10 µM | > 10 µM | > 10 µM | > 10 µM | > 10 µM | – |
| 7.8 µM | C[C@@H](C(=O)O)[C@@H]1CC[C@]2(C)CC[C@]3(C)[C@H](CC[C@@H]4[C@@]5(C)CC[C@@H](O)C(C)(C)[C@@H]5CC[C@]43C)[C@@H]12 | > 10 µM | > 10 µM | > 10 µM | > 10 µM | > 10 µM | 96.8% |
| 3.48 µM | C[C@@H](O)[C@@H]1CC[C@]2(C)CC[C@]3(C)[C@H](CC[C@@H]4[C@@]5(C)CC[C@@H](O)C(C)(C)[C@@H]5CC[C@]43C)[C@@H]12 | > 10 µM | > 10 µM | > 10 µM | > 10 µM | > 10 µM | 94.2% |
| > 10 µM | C[C@@H](CO)[C@@H]1CC[C@]2(C)CC[C@]3(C)[C@H](CC[C@@H]4[C@@]5(C)CCC(=O)C(C)(C)[C@@H]5C[C@H](O)[C@]43C)[C@@H]12 | > 10 µM | > 10 µM | > 10 µM | > 10 µM | > 10 µM | – |
| > 10 µM | C[C@@H](CO)[C@@H]1CC[C@]2(C)C[C@H](O)[C@]3(C)[C@H](CC[C@@H]4[C@@]5(C)CCC(=O)C(C)(C)[C@@H]5CC[C@]43C)[C@@H]12 | > 10 µM | > 10 µM | > 10 µM | > 10 µM | > 10 µM | – |
| > 10 µM | C=C(CO)[C@@H]1CC[C@]2(C)CC[C@]3(C)[C@H](CC[C@@H]4[C@@]5(C)CCC(=O)C(C)(C)[C@@H]5C[C@H](O)[C@]43C)[C@@H]12 | > 10 µM | > 10 µM | > 10 µM | > 10 µM | > 10 µM | – |
| > 10 µM | C=C(CO)[C@@H]1CC[C@]2(C)C[C@H](O)[C@]3(C)[C@H](CC[C@@H]4[C@@]5(C)CCC(=O)C(C)(C)[C@@H]5CC[C@]43C)[C@@H]12 | > 10 µM | > 10 µM | > 10 µM | > 10 µM | > 10 µM | – |
| > 10 µM | C=C(CO)[C@@H]1CC[C@]2(CO)CC[C@]3(C)[C@H](CC[C@@H]4[C@@]5(C)CC[C@@H](OC(C)=O)C(C)(C)[C@@H]5CC[C@]43C)[C@@H]12 | 2.77 µM | 3.21 µM | > 10 µM | 3.35 µM | 4.09 µM | – |
| > 10 µM | CC(=O)C1=C2[C@H]3CC[C@@H]4[C@@]5(C)CC[C@@H](O)C(C)(C)[C@@H]5CC[C@@]4(C)[C@]3(C)CC[C@@]2(C)CC1=O | > 10 µM | > 10 µM | > 10 µM | > 10 µM | > 10 µM | – |
| 0.53 µM | COc1cc(/C=C/C(=O)CC(=O)/C=C/c2ccc(O)c(OC)c2)ccc1O [CURCUMIN] | – | – | – | – | – | 93.3% |

— ChEMBL document CHEMBL3108727, “Lupane triterpenoids from the stems of Euonymus carnosus” (J Nat Prod, 2014)
